Test results as given in US20090023667A1 (priority 2005, published 2009).
Where two headings read alike, the source gives them in different places.

What was measured:
Format in all cases: in vivo
Pyricularia oryzae [1] = test system: Pyricularia oryzae
Pyricularia oryzae [2] = test system: Pyricularia oryzae; remark: listed apart in the source
Rhizoctonia solani [3] = test: Test Example 5: control test on paddy rice sheath blight, submerged application; conditions: submerged application of granule
Procedure: (§1) After 14 days from the treatment, Rhizoctonia solani cultured on a rice chaff/bran medium was inoculated on the basal of the rice plant. After 10 days from the inoculation, the extended lesion length of sheath blight of the whole stem was examined. The control value was calculated according to the following equation (3 replications).
(§2) Control Value=(1−average lesion length per a stem in the treated plot/average lesion length per a stem in the untreated plot)×100

Pyricularia oryzae [4] = test: whole plant or invertebrate
Pyricularia oryzae [5] = conditions: rice blast, nursery box application of granule
Rhizoctonia solani [6] = test: Test Example 6: control test on paddy rice sheath blight, nursery box application; conditions: nursery box application of granule
Procedure: as §1, with “30” for “14”
as §2

Rhizoctonia solani [7] = test: Test Example 4: control test on paddy rice sheath blight, spraying
Procedure: A compound solution of a prescribed concentration was sprayed on three 1/5000a rice pots (cultivar: Koshihikari; 4 leaf stage). After one day from the spraying, Rhizoctonia solani cultured on a rice chaff/bran medium was inoculated on the basal of the rice plant. After 10 days from the inoculation, the extended lesion length of sheath blight of the whole stem was examined. The control value was calculated according to the following equation (3 replications).
as §2

[8] = rice blast, sprayed at 60 ppm active ingredient, lesions after 7 days
[9] = Pyricularia oryzae, 168 h, read-out: Control value

Cc1ccc(C(=O)NCC(NC(=O)OCCCl)C(C)C)cc1 (stereo not drawn) [Compound 3]
Effect (class of control value) (Pyricularia oryzae [1]; in vivo): A (key: A: Not less than 80%; B: Not less than 50% to less than 80%; C: Less than 50%)

Cc1ccc(C(=O)NCC(NC(=O)Oc2ccc3ccccc3c2)C(C)C)cc1 (stereo not drawn) [Formula (16), reference compound]
Effect (class of control value) (Pyricularia oryzae [1]; [8]): C (Less than 50%)

CCC(C)C(CNC(=O)c1ccc(C)cc1)NC(=O)OCC(F)(F)F (stereo not drawn) [Compound 25]
Control value (Pyricularia oryzae [2]; in vivo): 95 | Effect (class of control value) (Pyricularia oryzae [1]; in vivo): A (key: A: Not less than 80%; B: Not less than 50% to less than 80%; C: Less than 50%) | Control value (Rhizoctonia solani [3]; 225 gai/10a): 5

O=C1OCc2c(Cl)c(Cl)c(Cl)c(Cl)c21 [Fthalide, reference compound]
pest or weed control at 300 ppm (Pyricularia oryzae [4]; [9]): 97%

Cc1ccc(NC(=O)c2snnc2C)cc1Cl [Tiadinil]
Control value (Pyricularia oryzae [5]; 6 gai/box): 95

Cc1nc(C(F)(F)F)c(C(=O)Nc2c(Br)cc(OC(F)(F)F)cc2Br)s1 [Thifluzamide, reference compound]
Control value (Rhizoctonia solani [6]; 1 gai/box): 95 | Control value (Rhizoctonia solani [3]; 60 gai/10a): 95

Cc1ccc(C(=O)NCC(NC(=O)OCC(F)(F)F)C(C)(C)C)cc1 (stereo not drawn) [Compound 24]
Control value (Pyricularia oryzae [4]; 60 ppm): 97 | Control value (Rhizoctonia solani [6]; 7.5 gai/box): 4 | Effect (class of control value) (Pyricularia oryzae [1]; in vivo): A (key: A: Not less than 80%; B: Not less than 50% to less than 80%; C: Less than 50%) | Control value (Rhizoctonia solani [3]; 225 gai/10a): 4 | Control value (Rhizoctonia solani [7]; 60 ppm): 2

C[C@H]1O[C@H](O[C@H]2[C@H](O)[C@@H](O)[C@@H](O)[C@H](O)[C@@H]2O)[C@@H](N)C[C@@H]1NC(=N)C(=O)O [Kasugamycin, reference compound]
Control value (Pyricularia oryzae [4]; rice blast, spraying, 20 ppm): 97

C/C(=N/Nc1nc(C)cc(C)n1)c1ccccc1C [Ferimzone, reference compound]
pest or weed control at 300 ppm (Pyricularia oryzae [4]; [9]): 98%

CNC(=O)/C(=N/OC)c1ccccc1Oc1ccccc1 [Metominostrobin, reference compound]
Control value (Pyricularia oryzae [2]; rice blast, submerged application of granule, 150 gai/10a): 98 | Control value (Rhizoctonia solani [3]; 150 gai/10a): 95

Cc1ccc(C(=O)NCC(NC(=O)OC(CBr)CBr)C(C)C)cc1 (stereo not drawn) [Compound 11]
Effect (class of control value) (Pyricularia oryzae [1]; in vivo): B (key: A: Not less than 80%; B: Not less than 50% to less than 80%; C: Less than 50%)

CO/C=C(/C(=O)OC)c1ccccc1Oc1cc(Oc2ccccc2C#N)ncn1 [Azoxystrobin, reference compound]
Control value (Rhizoctonia solani [7]; 80 ppm): 93

CC(=O)Oc1c(C)c(C)nc2c(F)cc(C(C)(C)C)cc12 [Compound 105, reference compound]
pest or weed control at 300 ppm (Pyricularia oryzae [4]; [9]): 98%

Cc1ccc(C(=O)NCC(NC(=O)OC(CF)CF)C(C)C)cc1 (stereo not drawn) [Compound 9]
Effect (class of control value) (Pyricularia oryzae [1]; in vivo): A (key: A: Not less than 80%; B: Not less than 50% to less than 80%; C: Less than 50%)

Cc1ccc(C(=O)NCC(NC(=O)OCCCCl)C(C)C)cc1 (stereo not drawn) [Compound 10]
Effect (class of control value) (Pyricularia oryzae [1]; in vivo): A (key: A: Not less than 80%; B: Not less than 50% to less than 80%; C: Less than 50%)

Cc1ccc(C(=O)NCC(NC(=O)OC(C)C(F)(F)F)C(C)C)cc1 (stereo not drawn) [Compound 30]
Control value (Pyricularia oryzae [2]; in vivo): 97 | Effect (class of control value) (Pyricularia oryzae [1]; in vivo): A (key: A: Not less than 80%; B: Not less than 50% to less than 80%; C: Less than 50%) | Control value (Rhizoctonia solani [3]; 225 gai/10a): 7

CSCC(C)OC(=O)NC(CNC(=O)c1ccc(C)cc1)C(C)C (stereo not drawn) [Formula (17), reference compound]
Effect (class of control value) (Pyricularia oryzae [1]; [8]): C (Less than 50%)

Cc1ccc(C(=O)NCC(NC(=O)OCCI)C(C)C)cc1 (stereo not drawn) [Compound 5]
Effect (class of control value) (Pyricularia oryzae [1]; in vivo): A (key: A: Not less than 80%; B: Not less than 50% to less than 80%; C: Less than 50%)

CC(C)C(CNC(=O)c1nc2ccc(F)cc2s1)NC(=O)OCC(F)(F)F (stereo not drawn) [Compound 37]
Control value (Pyricularia oryzae [4]; 60 ppm): 98 | Effect (class of control value) (Pyricularia oryzae [1]; in vivo): A (key: A: Not less than 80%; B: Not less than 50% to less than 80%; C: Less than 50%) | Control value (Rhizoctonia solani [7]; 60 ppm): 3

Cc1ccc(C(=O)NCC(NC(=O)OCCF)C(C)C)cc1 (stereo not drawn) [Compound 2]
Effect (class of control value) (Pyricularia oryzae [1]; in vivo): A (key: A: Not less than 80%; B: Not less than 50% to less than 80%; C: Less than 50%)

CCOP(=O)(Sc1ccccc1)Sc1ccccc1 [EDDP, reference compound]
Control value (Pyricularia oryzae [4]; 300 ppm): 97

CCC(CC)C(CNC(=O)c1ccc(C)cc1)NC(=O)OCC(F)(F)F (stereo not drawn) [Compound 39]
Effect (class of control value) (Pyricularia oryzae [1]; in vivo): A (key: A: Not less than 80%; B: Not less than 50% to less than 80%; C: Less than 50%)

Cc1ccccc1C(=O)Nc1cccc(OC(C)C)c1 [Mepronil, reference compound]
Control value (Rhizoctonia solani [7]; 750 ppm): 94

Cc1nn(C)c(Cl)c1C(=O)Nc1cccc2c1C(C)OC2(C)C (stereo not drawn) [Furametpyr, reference compound]
Control value (Rhizoctonia solani [6]; 2 gai/box): 96 | Control value (Rhizoctonia solani [3]; 45 gai/10a): 96 | Control value (Rhizoctonia solani [7]; 100 ppm): 95

CC(C)C(CNC(=O)c1nc2ccccc2s1)NC(=O)OCC(F)(F)F (stereo not drawn) [Compound 38]
Control value (Pyricularia oryzae [4]; 60 ppm): 96 | Effect (class of control value) (Pyricularia oryzae [1]; in vivo): A (key: A: Not less than 80%; B: Not less than 50% to less than 80%; C: Less than 50%) | Control value (Rhizoctonia solani [7]; 60 ppm): 3

N#Cc1ccccc1NC(=O)c1snc(Cl)c1Cl [Compound 104]
Control value (Pyricularia oryzae [5]; 1.5 gai/box): 98

Cc1ccc(C(=O)NCC(NC(=O)OCCC(F)(F)C(F)(F)C(F)(F)C(F)(F)F)C(C)C)cc1 (stereo not drawn) [Compound 14]
Effect (class of control value) (Pyricularia oryzae [1]; in vivo): B (key: A: Not less than 80%; B: Not less than 50% to less than 80%; C: Less than 50%)

C[C@@H](NC(=O)C(C#N)C(C)(C)C)c1ccc(Cl)cc1Cl (stereo partly drawn) [Diclocymet]
Control value (Pyricularia oryzae [5]; 1.5 gai/box): 97

CC(C)Oc1cccc(NC(=O)c2ccccc2C(F)(F)F)c1 [Flutolanil, reference compound]
Control value (Rhizoctonia solani [3]; 210 gai/10a): 96 | Control value (Rhizoctonia solani [7]; 250 ppm): 94

CSC(=O)c1cccc2nnsc12 [Acibenzolar-S-methyl]
Control value (Pyricularia oryzae [5]; 1 gai/box): 96

O=C(Nc1ccccc1)N(Cc1ccc(Cl)cc1)C1CCCC1 [Pencycuron, reference compound]
Control value (Rhizoctonia solani [7]; 167 ppm): 95

CC(CNC(=O)c1cc2ccccc2o1)NC(=O)OCC(F)(F)F (stereo not drawn) [Compound 40]
Control value (Pyricularia oryzae [4]; 60 ppm): 97 | Effect (class of control value) (Pyricularia oryzae [1]; in vivo): A (key: A: Not less than 80%; B: Not less than 50% to less than 80%; C: Less than 50%) | Control value (Rhizoctonia solani [7]; 60 ppm): 4

Cc1ccc(C(=O)NC(CNC(=O)OC(C(F)(F)F)C(F)(F)F)C(C)C)cc1 (stereo not drawn) [Compound 8, N-(1,1,1,3,3,3-hexafluoro-2-propyloxycarbonyl)-N′-(4-methylbenzoyl)-3-methyl-1,2-butanediamine]
Effect (class of control value) (Pyricularia oryzae [1]; [8]): A (Not less than 80%)

CC(C)(C)C(CNC(=O)c1cc2ccccc2o1)NC(=O)OCC(F)(F)F (stereo not drawn) [Compound 31]
Control value (Pyricularia oryzae [4]; 60 ppm): 96 | Control value (Rhizoctonia solani [6]; 7.5 gai/box): 2 | Effect (class of control value) (Pyricularia oryzae [1]; in vivo): A (key: A: Not less than 80%; B: Not less than 50% to less than 80%; C: Less than 50%) | Control value (Rhizoctonia solani [3]; 225 gai/10a): 4 | Control value (Rhizoctonia solani [7]; 60 ppm): 4

Cc1ccc(C(=O)NCC(NC(=O)OCC(F)(F)C(F)(F)C(F)(F)F)C(C)C)cc1 (stereo not drawn) [Compound 13]
Effect (class of control value) (Pyricularia oryzae [1]; in vivo): A (key: A: Not less than 80%; B: Not less than 50% to less than 80%; C: Less than 50%)

CC(C)CC(C)c1sccc1NC(=O)c1cn(C)nc1C(F)(F)F (racemic) [Penthiopyrad, (RS)—N-[2-(1,3-dimethylbutyl)thiophene-3-yl]-1-methyl-3-trifluoromethyl-1H-pirazole-4-carboxamide, reference compound]
pest or weed control at 200 ppm (Pyricularia oryzae [4]; [9]): 95%

Cc1c(Cl)cc(-c2ccc(=O)[nH]n2)cc1Cl [Diclomezine, reference compound]
Control value (Rhizoctonia solani [7]; 20 ppm): 95

Cc1ccc(C(=O)NC(CNC(=O)OCC(Cl)(Cl)Cl)C(C)C)cc1 (stereo not drawn) [Compound 7, N-(2,2,2-trichloroethyloxycarbonyl)-N′-(4-methylbenzoyl)-3-methyl-1,2-butanediamine]
Effect (class of control value) (Pyricularia oryzae [1]; [8]): A (Not less than 80%)

Cc1cccc2sc3nncn3c12 [Tricyclazole, reference compound]
pest or weed control at 200 ppm (Pyricularia oryzae [4]; [9]): 99% | Control value (Pyricularia oryzae [5]; 2 gai/box): 96

Cc1ccc(C(=O)NCC(NC(=O)OC2CCCCC2F)C(C)C)cc1 (stereo not drawn) [Compound 16]
Effect (class of control value) (Pyricularia oryzae [1]; in vivo): A (key: A: Not less than 80%; B: Not less than 50% to less than 80%; C: Less than 50%)

Cc1ccc(C(=O)NCC(NC(=O)OCCBr)C(C)C)cc1 (stereo not drawn) [Compound 4]
Effect (class of control value) (Pyricularia oryzae [1]; in vivo): A (key: A: Not less than 80%; B: Not less than 50% to less than 80%; C: Less than 50%)

C=CCOC1=NS(=O)(=O)c2ccccc21 [Probenazole]
Control value (Pyricularia oryzae [5]; 12 gai/box): 98

Cc1ccc(C(=O)NCC(NC(=O)OCC(F)(F)F)C2CCCC2)cc1 (stereo not drawn) [Compound 36]
Effect (class of control value) (Pyricularia oryzae [1]; in vivo): A (key: A: Not less than 80%; B: Not less than 50% to less than 80%; C: Less than 50%)

OCC1=C[C@H](N[C@H]2C[C@H](CO)[C@@H](O[C@@H]3O[C@H](CO)[C@@H](O)[C@H](O)[C@H]3O)[C@H](O)[C@H]2O)[C@H](O)[C@@H](O)[C@@H]1O [Validamycin, reference compound]
Control value (Rhizoctonia solani [7]; 60 ppm): 94

CC(C)OC(=O)C(C(=O)OC(C)C)=C1SCCS1 [Isoprothiolane, reference compound]
pest or weed control at 400 ppm (Pyricularia oryzae [4]; [9]): 98%
